Ends that are not written are not given here.
Key:
L. lactis HP [1] = experiment: Agar well diffusion assay with purified peptide; assay type: cell-based, Lactococcus lactis; details: for 100 mg L^−1 Agar Diffusion Zone Area: purified peptide 100 mg L^−1, 50 µl per well, 1.5% agar seeded 0.5% with L. lactis HP, 16 h; for 100 mg L^−1 Agar Diffusion Relative to WT (%): purified peptide 100 mg L^−1 vs L. lactis HP, zone area relative to nisin A
S. agalactiae ATCC 13813 [2] = experiment: Agar well diffusion assay with purified peptide; assay type: cell-based, Streptococcus agalactiae; details: for 100 mg L^−1 Agar Diffusion Zone Area: purified peptide 100 mg L^−1, 50 µl per well, 1.5% agar seeded 0.5% with S. agalactiae ATCC 13813, 16 h; for 100 mg L^−1 Agar Diffusion Relative to WT (%): purified peptide 100 mg L^−1 vs S. agalactiae ATCC 13813, zone area relative to nisin A
L. lactis HP [3] = experiment: Deferred antagonism assay of producer strains; assay type: cell-based, Lactococcus lactis; details: for Deferred Antagonism Zone Area: L. lactis NZ9800 producer spotted (approx. 3 µl) on GM17 agar, 16 h 30°C, overlaid with 0.75% agar seeded 0.5% with L. lactis HP, area of zone minus area of spot; for Deferred Antagonism Relative to WT (%): producer strain vs L. lactis HP, zone area relative to wild type nisin A producer
S. aureus RF122 [4] = experiment: Minimum inhibitory concentration (MIC) assay in broth; assay type: cell-based, Staphylococcus aureus; details: BSA-pretreated 96-well plates, triplicate, 2-fold dilutions from 7.5 µM, 10^5 cfu/ml, 16 h
Experimental: (§1) Minimum inhibitory concentration assays were carried out in triplicate using 96-well plates (Sarstedt) pretreated with bovine serum albumin (BSA) as previously described. Wild type nisin and nisin derivatives were adjusted to a 500 nM (when using L. lactis as a target) or 7.5 µM (all other indicators) starting concentration and 2-fold serial dilutions of each peptide were carried out. An overnight of the target strain was subcultured and incubated to an OD600 nm of 0.5 before being diluted to give a final inoculum of 10^5cfu/ml in 200μl. The plates were incubated at an appropriate temperature and inspected after 16 hours. The MIC was determined as the lowest concentration at which no growth was visible.

S. agalactiae ATCC 13813 [5] = experiment: Deferred antagonism assay of producer strains; assay type: cell-based, Streptococcus agalactiae; details: for Deferred Antagonism Zone Area: L. lactis NZ9800 producer spotted (approx. 3 µl) on GM17 agar, 16 h 30°C, overlaid with 0.75% agar seeded 0.5% with S. agalactiae ATCC 13813, area of zone minus area of spot; for Deferred Antagonism Relative to WT (%): producer strain vs S. agalactiae ATCC 13813, zone area relative to wild type nisin A producer
M. smegmatis MC2155 [6] = experiment: Deferred antagonism assay of producer strains; assay type: cell-based, Mycobacterium smegmatis; details: for Deferred Antagonism Zone Area: L. lactis NZ9800 producer spotted (approx. 3 µl) on GM17 agar, incubated 40 h, overlaid with 0.75% agar seeded 0.5% with M. smegmatis MC2155, area of zone minus area of spot; for Deferred Antagonism Relative to WT (%): producer strain vs M. smegmatis MC2155, zone area relative to wild type nisin A producer
S. agalactiae ATCC 13813 [7] = experiment: Minimum inhibitory concentration (MIC) assay in broth; assay type: cell-based, Streptococcus agalactiae; details: for MIC Specific Activity as % of WT: broth, BSA-pretreated 96-well plates, triplicate, 2-fold dilutions from 7.5 µM, 10^5 cfu/ml, 16 h
Experimental: as §1

M. smegmatis MC2155 [8] = experiment: Agar well diffusion assay with purified peptide; assay type: cell-based, Mycobacterium smegmatis; details: for 100 mg L^−1 Agar Diffusion Zone Area: purified peptide 100 mg L^−1, 50 µl per well, 0.75% agar seeded 0.5% with 40 h culture of M. smegmatis MC2155, 40 h; for 100 mg L^−1 Agar Diffusion Relative to WT (%): purified peptide 100 mg L^−1 vs M. smegmatis MC2155, zone area relative to nisin A
L. lactis HP [9] = experiment: Minimum inhibitory concentration (MIC) assay in broth; assay type: cell-based, Lactococcus lactis; details: BSA-pretreated 96-well plates, triplicate, 2-fold dilutions from 500 nM, 10^5 cfu/ml, 16 h
Experimental: as §1

S. aureus RF122 [10] = experiment: Agar well diffusion assay with purified peptide; assay type: cell-based, Staphylococcus aureus; details: for 100 mg L^−1 Agar Diffusion Zone Area: purified peptide 100 mg L^−1, 50 µl per well, 1.5% agar seeded 0.5% with S. aureus RF122, 16 h; for 100 mg L^−1 Agar Diffusion Relative to WT (%): purified peptide 100 mg L^−1 vs S. aureus RF122, zone area relative to nisin A
S. aureus RF122 [11] = experiment: Deferred antagonism assay of producer strains; assay type: cell-based, Staphylococcus aureus; details: for Deferred Antagonism Zone Area: L. lactis NZ9800 producer spotted (approx. 3 µl) on GM17 agar, 16 h 30°C, overlaid with 0.75% agar seeded 0.5% with S. aureus RF122, area of zone minus area of spot; for Deferred Antagonism Relative to WT (%): producer strain vs S. aureus RF122, zone area relative to wild type nisin A producer

Substance	100 mg L^−1 Agar Diffusion Zone Area (L. lactis HP [1]) [mm^2]	100 mg L^−1 Agar Diffusion Relative to WT (%) (L. lactis HP [1])	100 mg L^−1 Agar Diffusion Zone Area (S. agalactiae ATCC 13813 [2]) [mm^2]	100 mg L^−1 Agar Diffusion Relative to WT (%) (S. agalactiae ATCC 13813 [2])	Deferred Antagonism Zone Area (L. lactis HP [3]) [mm^2]	Deferred Antagonism Relative to WT (%) (L. lactis HP [3])	MIC Specific Activity as % of WT (S. aureus RF122 [4]) [%]	Deferred Antagonism Zone Area (S. agalactiae ATCC 13813 [5]) [mm^2]	Deferred Antagonism Relative to WT (%) (S. agalactiae ATCC 13813 [5])	Deferred Antagonism Zone Area (M. smegmatis MC2155 [6]) [mm^2]	Deferred Antagonism Relative to WT (%) (M. smegmatis MC2155 [6])	Improvement in broth based specific activity relative to the natural peptide (S. agalactiae ATCC 13813 [7]; broth based specific activity (MIC) assay)	MIC Specific Activity as % of WT (S. agalactiae ATCC 13813 [7]) [%]	100 mg L^−1 Agar Diffusion Zone Area (M. smegmatis MC2155 [8]) [mm^2]	100 mg L^−1 Agar Diffusion Relative to WT (%) (M. smegmatis MC2155 [8])	MIC Specific Activity as % of WT (L. lactis HP [9]) [%]	100 mg L^−1 Agar Diffusion Zone Area (S. aureus RF122 [10]) [mm^2]	100 mg L^−1 Agar Diffusion Relative to WT (%) (S. aureus RF122 [10])	Deferred Antagonism Zone Area (S. aureus RF122 [11]) [mm^2]	Deferred Antagonism Relative to WT (%) (S. aureus RF122 [11])
AAA: nisin A derivative with hinge region consisting of AAA (rational design) (ITSISLCTPGCKTGALMGCAAATATCHCSIHVSK; not fully specified; also: nisin-type thioether rings and dehydrated residues, not located; UniProt P13068 24-57, looked up, variant N20A M21A K22A)	416.00±17.99	155.41	305.58±2.39	124.06	492.83±40.27	164.51	25	401.32±15.62	177.14	277.65±60.42	541.09	two-fold improvement	200	149.24±4.776	220.15	100	155.77±3.30	156.81	292.24±11.46	211.29
NAI: nisin A derivative with hinge region NAI (ITSISLCTPGCKTGALMGCNAITATCHCSIHVSK; also: nisin-type thioether rings and dehydrated residues, not located; UniProt P13068 24-57, looked up, variant M21A K22I)	371.32±19.60	–	291.52±8.46	118.36	439.52±47.88	146.71	25	318.81±7.915	140.72	270.04±58.30	526.26	–	200	78.50±8.16	115.8	100	129.75±11.36	130.61	–	118.02
Nisin A (ITSISLCTPGCKTGALMGCNMKTATCHCSIHVSK; not fully specified; Lantibiotic nisin-A; UniProt P13068 24-57, looked up) [WT, 34 amino acid lantibiotic with three dehydrated amino acids and five thioether rings; hinge N20-M21-K22, reference compound]	267.69±9.21	–	246.31±2.74	–	299.58±7.04	–	–	226.55±2.96	–	51.31±10.08	–	–	–	67.79±4.308	–	–	99.34±12.33	–	138.31±3.36	–
SAA: nisin A derivative with hinge region consisting of SAA (rational design) (ITSISLCTPGCKTGALMGCSAATATCHCSIHVSK; also: nisin-type thioether rings and dehydrated residues, not located; UniProt P13068 24-57, looked up, variant N20S M21A K22A)	344.76±18.50	–	301.62±8.18	122.46	483.14±33.89	161.28	25	407.98±18.452	180.08	303.85±59.93	592.15	–	100	101.19±11.510	149.27	50	130.60±4.46	131.47	236.28±13.53	170.83
SLS: nisin A derivative with hinge region SLS (ITSISLCTPGCKTGALMGCSLSTATCHCSIHVSK; also: nisin-type thioether rings and dehydrated residues, not located; UniProt P13068 24-57, looked up, variant N20S M21L K22S)	321.93±22.43	120.26	226.05±4.10	91.78	370.75±28.28	123.76	<6	209.45±17.11	92.45	230.31±20.31	448.84	–	25	119.56±8.59	176.36	25	98.82±10.14	99.47	153.93±7.15	111.29

From publication PMC3823697, “Intensive Mutagenesis of the Nisin Hinge Leads to the Rational Design of Enhanced Derivatives” (PLoS ONE, 2013)
